# According to article PMC6825221, “In silico re-engineering of a neurotransmitter to activate KCNQ potassium channels in an isoform-specific manner” (Communications Biology, 2019):
# Several values for one entry are separate records, joined by “and”; a condition that tells them apart may be missing. Equal values may be shown once. Entries after “also recorded” stand apart in the source; their conditions may differ. Read-outs that look alike come from different tables or passages of the source.
# Experiments:
# KCNQ4 = KCNQ4 (Homo sapiens, UniProt P56696); experiment: TEVC of homomeric KCNQ4 expressed in Xenopus oocytes; assay type: cell-based; settings: for effects on KCNQ4: dose response
# From the text: (§1) We generated cRNA transcripts encoding human KCNQ1, KCNQ2, KCNQ3, KCNQ4, KCNQ5 or GLRA1 (NM_001146040) (GenScript, Piscataway, NJ, USA) by in vitro transcription using the T7 polymerase mMessage mMachine kit (Thermo Fisher Scientific), after vector linearization, from cDNA sub-cloned into plasmids incorporating Xenopus laevis β-globin 5′ and 3′ UTRs flanking the coding region to enhance translation and cRNA stability. We quantified cRNA by spectrophotometry. We generated mutant KCNQ2 and KCNQ3 cDNAs by site-directed mutagenesis using a QuikChange kit (Stratagene, San Diego, CA) and prepared the corresponding cRNAs as above. We injected defolliculated stage V and VI Xenopus laevis oocytes (Ecocyte Bioscience, Austin, TX and Xenoocyte, Dexter, MI) with KCNQ channel α subunit (5-20 ng) or GLRA1 (20 ng) cRNAs. We incubated the oocytes at 16 °C in Barth’s saline solution (Ecocyte Bioscience) containing penicillin and streptomycin, with daily washing, for 2–5 days prior to two-electrode voltage-clamp (TEVC) recording.
# (§2) We performed TEVC at room temperature using an OC-725C amplifier (Warner Instruments, Hamden, CT) and pClamp10 software (Molecular Devices, Sunnyvale, CA) 2–5 days after cRNA injection as described in the section above. For recording, oocytes were placed in a small-volume oocyte bath (Warner) and viewed them with a dissection microscope. Chemicals were sourced from Sigma, Matrix Scientific and Santa Cruz. […] All stock solutions were diluted in bath solution on the day of experiments. KCNQ2/3 channel activation was screened for using either 30 µM or 100 µM concentrations of each of the six compounds, then dose responses were conducted as appropriate. Bath solution was (in mM): 96 NaCl, 4 KCl, 1 MgCl2, 1 CaCl2, 10 HEPES (pH 7.6). Compounds were introduced into the oocyte recording bath by gravity perfusion at a constant flow of 1 ml per minute for 3 min prior to recording. Pipettes were of 1–2 MΩ resistance when filled with 3 M KCl. Currents were recorded in response to voltage pulses between −120 or −80 mV and + 40 mV at 20 mV intervals from a holding potential of −80 mV, to yield current-voltage relationships, current magnitude, and for quantifying activation rate. We analyzed data using Clampfit (Molecular Devices) and Graphpad Prism software (GraphPad, San Diego, CA, USA); values are stated as mean ± SEM. We plotted raw or normalized tail currents versus prepulse voltage and fitted with a single Boltzmann function:1 g=(A1−A2)/1+exp(V12−V)∕VS+A2, where g is the normalized tail conductance, A1 is the initial value at −∞, A2 is the final value at +∞, V1/2 is the half-maximal voltage of activation and Vs the slope factor. Activation, deactivation, wash-in and washout kinetics were fitted with single exponential functions to yield a τ value.
# KCNQ2 [1] = target: T1, KCNQ2 (Homo sapiens, UniProt O43526); experiment: TEVC of homomeric KCNQ2 expressed in Xenopus oocytes; assay type: cell-based
# From the text: as §1, with “We generated mutant KCNQ2 and KCNQ3 cDNAs by site-directed mutagenesis using a QuikChange kit (Stratagene, San Diego, CA) and prepared the corresponding cRNAs as above.” left out
# as §2, with “For” for “We performed TEVC at room temperature using an OC-725C amplifier (Warner Instruments, Hamden, CT) and pClamp10 software (Molecular Devices, Sunnyvale, CA) 2–5 days after cRNA injection as described in the section above. For”
# KCNQ5 [2] = target: T2, KCNQ5 (Homo sapiens, UniProt Q9NR82); experiment: TEVC of homomeric KCNQ5 expressed in Xenopus oocytes; assay type: cell-based; settings: dose response
# From the text: as §1
# (§3) We performed TEVC at room temperature using an OC-725C amplifier (Warner Instruments, Hamden, CT) and pClamp10 software (Molecular Devices, Sunnyvale, CA) 2–5 days after cRNA injection as described in the section above. For recording, oocytes were placed in a small-volume oocyte bath (Warner) and viewed them with a dissection microscope. Chemicals were sourced from Sigma, Matrix Scientific and Santa Cruz. […] All stock solutions were diluted in bath solution on the day of experiments. KCNQ2/3 channel activation was screened for using either 30 µM or 100 µM concentrations of each of the six compounds, then dose responses were conducted as appropriate. […] Currents were recorded in response to voltage pulses between −120 or −80 mV and + 40 mV at 20 mV intervals from a holding potential of −80 mV, to yield current-voltage relationships, current magnitude, and for quantifying activation rate. We analyzed data using Clampfit (Molecular Devices) and Graphpad Prism software (GraphPad, San Diego, CA, USA); values are stated as mean ± SEM. […]
# KCNQ3* [3] = target: T3, KCNQ3* (Homo sapiens, UniProt O43525, A315T); experiment: TEVC of homomeric KCNQ3* (A315T KCNQ3 mutant) expressed in Xenopus oocytes; assay type: cell-based; settings: dose response
# From the text: We next validated the in silico predictions using two-electrode voltage clamp of homomeric neuronal KCNQ2-5 channel isoforms expressed in Xenopus laevis oocytes. […] As in previous studies[8],[10], we used the A315T KCNQ3 mutant (KCNQ3*) that ensures large enough currents to accurately quantify voltage dependence and pharmacology of homomeric KCNQ3[16].
# as §1
# as §2, with “We plotted raw or normalized tail currents versus prepulse voltage and fitted with a single Boltzmann function:1 g=(A1−A2)/1+exp(V12−V)∕VS+A2, where g is the normalized tail conductance, A1 is the initial value at −∞, A2 is the final value at +∞, V1/2 is the half-maximal voltage of activation and Vs the slope factor. Activation, deactivation, wash-in and washout kinetics were fitted with single exponential functions to yield a τ value.” left out
# KCNQ1 [4] = target: T4, KCNQ1 (Homo sapiens, UniProt P51787); experiment: TEVC of homomeric KCNQ1 expressed in Xenopus oocytes; assay type: cell-based
# From the text: as §1, §3
# KCNQ2/3 [5] = target: T5, KCNQ2/3 (Homo sapiens, UniProt O43525+O43526); experiment: TEVC of KCNQ2/3 channels expressed in Xenopus oocytes; assay type: cell-based; settings: TEVC in oocytes; for EC50: shift in voltage dependence of activation (ΔV0.5act)
# From the text: as §1, with “We generated mutant KCNQ2 and KCNQ3 cDNAs by site-directed mutagenesis using a QuikChange kit (Stratagene, San Diego, CA) and prepared the corresponding cRNAs as above.” left out
# as §2, with “For” for “We performed TEVC at room temperature using an OC-725C amplifier (Warner Instruments, Hamden, CT) and pClamp10 software (Molecular Devices, Sunnyvale, CA) 2–5 days after cRNA injection as described in the section above. For”
# KCNQ5 [6] = target: T2, KCNQ5; design: method as in PMID 29748663; settings: cited from earlier work
# KCNQ3* [7] = target: T3, KCNQ3*; design: method as in PMID 29748663; settings: cited from earlier work
# KCNQ3* [8] = target: T3, KCNQ3*; experiment: [3H]GABA binding and competition, oocytes expressing KCNQ3*
# Method: (§4) Oocytes were then washed four times in 16 °C ND96, transferred to individual wells in a 96 well plate and lysed in 0.2% SDS in ND96. Each oocyte lysate was transferred to a scintillation vial containing 5 ml Cytoscint scintillation cocktail fluid (MP Biomedicals, Santa Ana, CA). Vials were capped, shaken, and then allowed to sit at room temperature for at least 30 min before scintillation counting in a Beckmann Coulter LS6500 liquid scintillation counter.
# KCNQ2 [9] = target: T1, KCNQ2; design: method as in PMID 30021858; settings: cited from earlier work
# GLRA1 = target: T6, GLRA1 (Homo sapiens, UniProt P23415); experiment: TEVC of glycine receptor GLRA1 expressed in Xenopus oocytes; assay type: cell-based; settings: 1 mM, compound alone
# T6 sequence (P23415 29-457): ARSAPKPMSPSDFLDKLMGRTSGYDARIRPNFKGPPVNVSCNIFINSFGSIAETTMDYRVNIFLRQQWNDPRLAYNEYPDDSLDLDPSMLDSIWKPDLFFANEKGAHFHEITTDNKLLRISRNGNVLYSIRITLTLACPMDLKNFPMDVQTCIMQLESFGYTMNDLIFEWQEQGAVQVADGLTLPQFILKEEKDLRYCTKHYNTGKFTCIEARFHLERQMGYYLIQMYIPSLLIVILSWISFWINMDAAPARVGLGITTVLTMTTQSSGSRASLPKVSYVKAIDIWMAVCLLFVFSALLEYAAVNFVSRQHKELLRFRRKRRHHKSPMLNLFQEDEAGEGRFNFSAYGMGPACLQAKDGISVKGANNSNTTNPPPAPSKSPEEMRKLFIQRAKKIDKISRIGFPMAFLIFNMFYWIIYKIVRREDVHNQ
# From the text: as §1, §2
# KCNQ2/3 [10] = target: T5, KCNQ2/3
# Method: as §4
# KCNQ1 [11] = target: T4, KCNQ1; settings: cited from earlier work
# KCNQ3*-R242A = target: T7, KCNQ3*-R242A (Homo sapiens, UniProt O43525, A315T/R242A); experiment: TEVC of homomeric KCNQ3*-R242A; assay type: cell-based; settings: 100 µM
# T7 sequence (O43525 1-872 R242A/A315T): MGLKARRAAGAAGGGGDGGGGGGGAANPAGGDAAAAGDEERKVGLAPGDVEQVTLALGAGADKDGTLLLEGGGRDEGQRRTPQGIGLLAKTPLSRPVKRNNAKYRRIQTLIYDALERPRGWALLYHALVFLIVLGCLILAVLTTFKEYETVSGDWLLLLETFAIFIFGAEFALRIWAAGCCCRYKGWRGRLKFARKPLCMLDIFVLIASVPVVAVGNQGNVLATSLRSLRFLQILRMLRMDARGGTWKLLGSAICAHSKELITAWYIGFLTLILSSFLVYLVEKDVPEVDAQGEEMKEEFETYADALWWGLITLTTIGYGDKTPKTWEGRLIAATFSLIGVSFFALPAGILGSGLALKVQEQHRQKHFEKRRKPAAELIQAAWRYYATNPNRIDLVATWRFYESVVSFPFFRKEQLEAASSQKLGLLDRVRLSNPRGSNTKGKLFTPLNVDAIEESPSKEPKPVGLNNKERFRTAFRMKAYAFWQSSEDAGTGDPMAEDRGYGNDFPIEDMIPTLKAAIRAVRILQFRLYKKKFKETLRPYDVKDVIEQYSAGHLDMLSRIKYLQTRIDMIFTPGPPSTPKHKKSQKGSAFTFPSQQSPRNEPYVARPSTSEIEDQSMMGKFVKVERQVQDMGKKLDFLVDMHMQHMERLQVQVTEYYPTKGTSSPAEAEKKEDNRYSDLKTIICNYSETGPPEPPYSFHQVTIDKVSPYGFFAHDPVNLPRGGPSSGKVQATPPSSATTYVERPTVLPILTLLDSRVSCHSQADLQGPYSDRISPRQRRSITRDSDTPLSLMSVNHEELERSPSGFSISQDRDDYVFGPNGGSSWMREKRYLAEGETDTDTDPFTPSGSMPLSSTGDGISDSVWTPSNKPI
# From the text: We generated cRNA transcripts encoding human KCNQ1, KCNQ2, KCNQ3, KCNQ4, KCNQ5 or GLRA1 (NM_001146040) (GenScript, Piscataway, NJ, USA) by in vitro transcription using the T7 polymerase mMessage mMachine kit (Thermo Fisher Scientific), after vector linearization, from cDNA sub-cloned into plasmids incorporating Xenopus laevis β-globin 5′ and 3′ UTRs flanking the coding region to enhance translation and cRNA stability. We quantified cRNA by spectrophotometry. We generated mutant KCNQ2 and KCNQ3 cDNAs by site-directed mutagenesis using a QuikChange kit (Stratagene, San Diego, CA) and prepared the corresponding cRNAs as above. […]
# We performed TEVC at room temperature using an OC-725C amplifier (Warner Instruments, Hamden, CT) and pClamp10 software (Molecular Devices, Sunnyvale, CA) 2–5 days after cRNA injection as described in the section above. […] Currents were recorded in response to voltage pulses between −120 or −80 mV and + 40 mV at 20 mV intervals from a holding potential of −80 mV, to yield current-voltage relationships, current magnitude, and for quantifying activation rate. We analyzed data using Clampfit (Molecular Devices) and Graphpad Prism software (GraphPad, San Diego, CA, USA); values are stated as mean ± SEM. […]
# T5 sequence (O43525 whole entry): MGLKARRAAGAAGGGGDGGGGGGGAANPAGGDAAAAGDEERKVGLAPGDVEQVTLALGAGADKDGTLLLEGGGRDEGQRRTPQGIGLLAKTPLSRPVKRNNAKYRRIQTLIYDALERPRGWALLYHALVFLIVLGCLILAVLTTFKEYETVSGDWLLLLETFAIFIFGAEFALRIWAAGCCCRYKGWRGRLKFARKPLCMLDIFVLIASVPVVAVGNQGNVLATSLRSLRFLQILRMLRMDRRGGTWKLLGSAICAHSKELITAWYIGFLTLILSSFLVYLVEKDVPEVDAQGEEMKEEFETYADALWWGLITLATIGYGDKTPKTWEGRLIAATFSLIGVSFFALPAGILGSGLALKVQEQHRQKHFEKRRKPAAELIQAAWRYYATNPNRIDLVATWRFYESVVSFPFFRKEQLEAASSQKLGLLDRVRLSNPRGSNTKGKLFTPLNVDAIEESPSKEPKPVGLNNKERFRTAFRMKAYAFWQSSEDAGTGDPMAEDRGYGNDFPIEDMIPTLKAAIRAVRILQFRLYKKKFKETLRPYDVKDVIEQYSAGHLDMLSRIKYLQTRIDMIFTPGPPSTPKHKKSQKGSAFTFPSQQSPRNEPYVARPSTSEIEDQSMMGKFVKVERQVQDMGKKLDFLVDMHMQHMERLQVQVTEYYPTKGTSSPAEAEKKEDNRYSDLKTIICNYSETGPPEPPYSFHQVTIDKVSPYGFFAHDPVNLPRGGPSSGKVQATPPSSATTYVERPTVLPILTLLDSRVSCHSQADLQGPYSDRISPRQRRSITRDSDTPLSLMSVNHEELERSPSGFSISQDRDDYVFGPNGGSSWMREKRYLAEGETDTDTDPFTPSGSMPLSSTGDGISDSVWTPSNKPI
# T5 sequence (O43526 whole entry): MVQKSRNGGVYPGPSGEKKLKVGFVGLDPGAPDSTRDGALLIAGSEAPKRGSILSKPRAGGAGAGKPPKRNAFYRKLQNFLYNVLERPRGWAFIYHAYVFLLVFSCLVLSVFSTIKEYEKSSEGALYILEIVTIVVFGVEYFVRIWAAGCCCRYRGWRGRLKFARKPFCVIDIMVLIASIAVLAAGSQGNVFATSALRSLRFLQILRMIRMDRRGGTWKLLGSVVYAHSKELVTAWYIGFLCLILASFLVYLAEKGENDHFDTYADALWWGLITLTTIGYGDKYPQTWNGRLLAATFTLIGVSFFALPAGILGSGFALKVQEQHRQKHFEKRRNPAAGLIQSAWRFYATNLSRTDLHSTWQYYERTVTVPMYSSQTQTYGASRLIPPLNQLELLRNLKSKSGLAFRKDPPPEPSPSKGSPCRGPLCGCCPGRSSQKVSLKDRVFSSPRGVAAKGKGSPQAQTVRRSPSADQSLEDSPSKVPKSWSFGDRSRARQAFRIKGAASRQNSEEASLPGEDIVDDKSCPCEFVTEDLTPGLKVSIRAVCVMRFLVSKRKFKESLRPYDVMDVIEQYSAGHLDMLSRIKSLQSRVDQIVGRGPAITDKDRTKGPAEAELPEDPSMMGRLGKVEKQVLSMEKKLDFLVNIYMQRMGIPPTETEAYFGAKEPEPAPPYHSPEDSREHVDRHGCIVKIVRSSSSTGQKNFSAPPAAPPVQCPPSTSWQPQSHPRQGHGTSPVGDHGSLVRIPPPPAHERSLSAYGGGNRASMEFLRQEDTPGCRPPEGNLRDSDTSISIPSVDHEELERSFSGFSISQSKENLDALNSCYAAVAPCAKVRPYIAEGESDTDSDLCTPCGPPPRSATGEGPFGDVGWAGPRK
structure (smiles),measurement,setting,value
"NC(C(=O)O)c1ccc(F)cc1 (stereo not drawn) [4FPG, 4-(fluorophenyl)glycine]",KCNQ4 activation and deactivation rates,KCNQ4; 30 µM,speeded KCNQ2 and KCNQ4 activation and slowed their deactivation
same,EC50,"KCNQ4; ΔV0.5act, read-out: EC50, KCNQ4 activation",49 ± 12 nM
same,KCNQ2 activation and deactivation rates,"KCNQ2 [1]; 4FPG 30 µM, 2FPG 100 µM",speeded KCNQ2 and KCNQ4 activation and slowed their deactivation
same,EC50,"KCNQ2 [1]; wild-type KCNQ2, ΔV0.5act, read-out: EC50, KCNQ2 activation",69 ± 31 nM
same,effects on KCNQ5,KCNQ5 [2],no effects
same,effects on KCNQ3*,KCNQ3* [3],no effects
same,KCNQ1 activation and deactivation rates,KCNQ1 [4]; 30 µM,slowed KCNQ1 deactivation but did not speed its activation
same,EC50,"KCNQ1 [4]; ΔV0.5act, read-out: EC50, KCNQ1 activation",90 ± 20 nM
same,EC50,"KCNQ2/3 [5]; read-out: EC50, KCNQ2/3 activation",61 ± 42 nM
"NCCCC(=O)O [GABA, γ-aminobutyric acid, reference compound]",activation of KCNQ5,KCNQ5 [6],activate only KCNQ3 and KCNQ5
same,effects on KCNQ4,KCNQ4,unable to open
same,activation of KCNQ3,KCNQ3* [7],activate only KCNQ3 and KCNQ5
same,[3H]GABA binding to KCNQ3*,KCNQ3* [8],bound
NCC1(CC(=O)O)CCCCC1 [gabapentin],activation of KCNQ5,KCNQ5 [6],activate only KCNQ3 and KCNQ5
same,activation of KCNQ3,KCNQ3* [7],activate only KCNQ3 and KCNQ5
same,activation of KCNQ2,KCNQ2 [9],not KCNQ2
"NCC(=O)O [glycine, reference compound]",effects on KCNQ4,KCNQ4,unable to open
same,activation of GLRA1,GLRA1,robust activation
same,effects on KCNQ2,KCNQ2 [1]; dose response,unable to open
same,effects on KCNQ5,KCNQ5 [2],no effects
same,effects on KCNQ3*,KCNQ3* [3],no effects
same,binding of tritiated ligand to wild-type KCNQ2/3,KCNQ2/3 [10]; CPM over 30 min,did not
same,inhibition of GABA binding to wild-type KCNQ2/3,KCNQ2/3 [10]; cold glycine 100 µM,did not inhibit GABA binding
same,activation of KCNQ2/3,KCNQ2/3 [5],nor does it activate KCNQ2/3; also recorded: no effect
"CCOC(=O)Nc1ccc(NCc2ccc(F)cc2)cc1N [retigabine, reference compound]",activation of KCNQ1,KCNQ1 [11],does not activate KCNQ1
same,effect on nonfunctional KCNQ3*-R242A,KCNQ3*-R242A,awakened neither by 3FMSG nor retigabine
same,EC50,"KCNQ2/3 [5]; EC50, KCNQ2/3 activation",6900 nM and 6870 nM
